Measured values published in patent US20240090503A1, “FUNGICIDAL OXADIAZOLES AND THEIR MIXTURES” (FMC CORPORATION, priority 2020, published 2024).
Marks after values point to notes of the source that are not given here.

How the values were obtained:
Type in all cases: in vivo
[1] = test system: Zymoseptoria tritici (the causal agent of wheat leaf blotch); test: Test B: preventive spray on wheat seedlings, wheat leaf blotch, visual disease rating; conditions: wheat seedlings; for pest or weed control at 100 µg/mL: read-out: Test B disease control rating
Description: General protocol for preparing test suspensions for Tests A-D: the test compounds were first dissolved in acetone in an amount equal to 3% of the final volume and then suspended at the desired concentration (in ppm) in acetone and purified water (50/50 mix by volume) containing 250 ppm of the surfactant PEG400 (polyhydric alcohol esters). The resulting test suspensions were then used in Tests A-D.
The test suspension was sprayed to the point of run-off on wheat seedlings. The following day the seedlings were inoculated with a spore suspension of Zymoseptoria tritici (the causal agent of wheat leaf blotch) and incubated in a saturated atmosphere at 24° C. for 48 h, and then moved to a growth chamber at 20° C. for 17 days, after which time visual disease ratings were made.
The test results for Tests A-C presented in Table A below for compounds of Formula 1 illustrate the fungicidal activity of component (a) contributing to the plant disease control utility of compositions comprising component (a) in combination with component (b) according to the present invention. In the Table, a rating of 100 indicates 100% disease control and a rating of 0 indicates no disease control (relative to the controls). A dash (-) indicates the compound was not tested. The test suspensions were sprayed at the concentration listed in the column “Rate in ppm”, unless otherwise indicated. An asterisk “*” next to the rating indicates a 250 ppm test suspension was used, a double asterisk “**” next to the rating indicates a 100 ppm test suspension was used, and a triple asterisk “***” next to the rating indicates a 50 ppm test suspension was used.

[2] = test system: Puccinia recondita f. sp. tritici (the causal agent of wheat leaf rust); test: Test C: preventive spray on wheat seedlings, wheat leaf rust, visual disease rating; conditions: wheat seedlings; for pest or weed control at 10 µg/mL: read-out: Test C disease control rating
Summary of the method: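 Wheat seedlings sprayed to run-off with compound in acetone/water (50/50) with 250 ppm PEG400, then inoculated with spores the following day. After 24 h saturated humidity at 20° C. and 6 days in growth chamber at 20° C., disease rated visually as % control relative to untreated controls.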

[3] = test system: Phakopsora pachyrhizi (the causal agent of Asian soybean rust); test: Test A: preventive spray on soybean seedlings, Asian soybean rust, visual disease rating; conditions: soybean seedlings; for pest or weed control at 10 µg/mL: read-out: Test A disease control rating
Summary of the method: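 Preventive test: soybean seedlings received a run-off spray of compound suspended at the set ppm in 50/50 acetone/water plus 250 ppm PEG400, and one day later a P. pachyrhizi spore inoculum. Visual scoring (0 none to 100 full disease control) followed 24 h saturated incubation and 8 days' growth chamber, both at 22° C.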

[4] = Zymoseptoria tritici, 456 h, test suspension 100 ppm (** next to rating)
[5] = Puccinia recondita, 168 h, test suspension 10 ppm
[6] = Phakopsora pachyrhizi, 216 h, test suspension 10 ppm, 100 = 100% disease control, 0 = no control
[7] = test suspension 100 ppm (** next to rating)
[8] = test suspension 10 ppm, 100 = 100% disease control, 0 = no control
[9] = 250 ppm test suspension, 100 = 100% disease control
[10] = 10 ppm test suspension, 100 = 100% disease control, 0 = no control

SMILES: CCCOC(=O)c1cnn(Cc2ccc(-c3noc(C(F)(F)F)n3)s2)c1 [Compound 198, propyl 1-[[5-[5-(trifluoromethyl)-1,2,4-oxadiazol-3-yl]-2-thienyl]methyl]-1H-pyrazole-4-carboxylate]
- pest or weed control at 100 µg/mL [1, 4]: 94%
- pest or weed control at 10 µg/mL [2, 5]: 99%
- pest or weed control at 10 µg/mL [3, 6]: 100%

SMILES: C#CCOC(=O)c1cnn(Cc2ccc(-c3noc(C(F)(F)F)n3)cc2)c1 [compound 56]
- Test B disease control rating [1, 7]: 68** %
- Test C disease control rating ([2]; test suspension 10 ppm): 100%
- Test A disease control rating [3, 8]: 100%

SMILES: COCCNC(=O)c1ccc(Cc2ccc(-c3noc(C(F)(F)F)n3)cc2)cc1 [Compound 282]
- Test B disease control rating ([1]; test suspension 250 ppm): 94* %
- Test C disease control rating ([2]; test suspension 10 ppm): 97%
- Test A disease control rating [3, 8]: 100%

SMILES: CCNC(=O)c1csc(Cc2ccc(-c3noc(C(F)(F)F)n3)cc2)n1 [compound 488]
- Test B disease control rating [1, 9]: 99* %
- Test C disease control rating [2, 10]: 100%
- Test A disease control rating [3, 10]: 100%

SMILES: COc1ccc2c(C#N)nn(Cc3ccc(-c4noc(C(F)(F)F)n4)cc3)c2c1 [compound 120]
- Test B disease control rating ([1]; test suspension 260 ppm): 0%
- Test C disease control rating ([2]; test suspension 260 ppm): 68%
- Test A disease control rating ([3]; test suspension 260 ppm): 99%

SMILES: CCOC(=O)C1=NOC(Cc2ccc(-c3noc(C(F)(F)F)n3)cc2)C1 (stereo not drawn) [compound 29]
- Test B disease control rating ([1]; test suspension 250 ppm): 94* %
- Test C disease control rating ([2]; test suspension 10 ppm): 19%
- Test A disease control rating [3, 8]: 73%

SMILES: CCOC(=O)c1csc(Cc2ccc(-c3noc(C(F)(F)F)n3)s2)n1 [compound 201]
- Test B disease control rating ([1]; test suspension 250 ppm): 28%
- Test C disease control rating ([2]; test suspension 250 ppm): 100%
- Test A disease control rating ([3]; test suspension 250 ppm): 100%

SMILES: CN(C)C(=O)C1=NOC(CCOc2cccc(-c3noc(C(F)(F)F)n3)c2)C1 (stereo not drawn) [compound 224]
- pest or weed control at 250 µg/mL ([1]; Zymoseptoria tritici, 456 h, test suspension 250 ppm): 81%
- pest or weed control at 50 µg/mL ([2]; Puccinia recondita, 168 h, test suspension 50 ppm): 89%
- pest or weed control at 50 µg/mL ([3]; Phakopsora pachyrhizi, 216 h, test suspension 50 ppm): 100%

SMILES: O=C(NCC(F)(F)F)c1csc(Cc2ccc(-c3noc(C(F)(F)F)n3)cc2)n1 [Compound 463, N-(2,2,2-trifluoroethyl)-2-[[4-[5-(trifluoromethyl)-1,2,4-oxadiazol-3-yl]phenyl]methyl]-4-thiazolecarboxamide]
- pest or weed control at 250 ppm ([1]; Zymoseptoria tritici, 456 h, 250 ppm test suspension, 100 = 100% disease control): 65%
- pest or weed control at 10 ppm ([2]; Puccinia recondita, 168 h, 10 ppm test suspension, 100 = 100% disease control, 0 = no control): 100%
- pest or weed control at 10 ppm ([3]; Phakopsora pachyrhizi, 216 h, 10 ppm test suspension, 100 = 100% disease control, 0 = no control): 100%

SMILES: FC(F)(F)c1nc(-c2ccc(Cn3cc(Br)cn3)cc2)no1 [compound 163]
- Test B disease control rating ([1]; test suspension 250 ppm): 0%
- Test C disease control rating ([2]; test suspension 250 ppm): 100%
- Test A disease control rating ([3]; test suspension 250 ppm): 100%

SMILES: O=C1COCCN1Cc1ccc(-c2noc(C(F)(F)F)n2)cc1 [compound 372]
- Test B disease control rating ([1]; test suspension 250 ppm): 99* %
- Test C disease control rating ([2]; test suspension 250 ppm): 100%
- Test A disease control rating ([3]; test suspension 250 ppm): 100%

SMILES: O=C(NC1CC1)c1coc(Cc2ccc(-c3noc(C(F)(F)F)n3)cc2)n1 [compound 260]
- Test B disease control rating ([1]; test suspension 250 ppm): 47* %
- Test C disease control rating ([2]; test suspension 10 ppm): 100%
- Test A disease control rating [3, 8]: 100%

SMILES: O=[N+]([O-])c1ccc2c(cnn2Cc2ccc(-c3noc(C(F)(F)F)n3)cc2)c1 [compound 94]
- Test B disease control rating ([1]; test suspension 250 ppm): 35%
- Test C disease control rating ([2]; test suspension 250 ppm): 78%
- Test A disease control rating ([3]; test suspension 250 ppm): 100%

SMILES: CCCOC(=O)c1cnn(Cc2ccc(-c3noc(C(F)(F)F)n3)cc2)c1 [compound 60]
- Test B disease control rating [1, 7]: 75** %
- Test C disease control rating ([2]; test suspension 10 ppm): 100%
- Test A disease control rating [3, 8]: 100%

SMILES: CCOC(=O)c1nn(Cc2ccc(-c3noc(C(F)(F)F)n3)cc2)c2ccccc12 [compound 117]
- Test B disease control rating ([1]; test suspension 255 ppm): 0%
- Test C disease control rating ([2]; test suspension 255 ppm): 41%
- Test A disease control rating ([3]; test suspension 255 ppm): 88%

SMILES: FC(F)(F)c1nc(-c2ccc(Cn3cnc4ccccc43)cc2)no1 [compound 91]
- Test B disease control rating ([1]; test suspension 250 ppm): 96%
- Test C disease control rating ([2]; test suspension 250 ppm): 100%
- Test A disease control rating ([3]; test suspension 250 ppm): 100%

SMILES: COCCNC(=O)c1csc(Cc2ccc(-c3noc(C(F)(F)F)n3)cc2)c1 [compound 287]
- Test B disease control rating ([1]; test suspension 250 ppm): 98* %
- Test C disease control rating ([2]; test suspension 10 ppm): 100%
- Test A disease control rating [3, 8]: 100%

SMILES: O=C(c1ccc(Cc2ccc(-c3noc(C(F)(F)F)n3)cc2)o1)C(F)(F)F [compound 450]
- Test B disease control rating [1, 9]: 41* %
- Test C disease control rating [2, 10]: 0%
- Test A disease control rating [3, 10]: 94%

SMILES: COCCNC(=O)c1coc(COc2ccc(-c3noc(C(F)(F)F)n3)cc2)n1 [compound 464]
- Test B disease control rating [1, 9]: 94* %
- Test C disease control rating [2, 10]: 23%
- Test A disease control rating [3, 10]: 79%

SMILES: COC(=O)c1ccc(CCn2cc(-c3noc(C(F)(F)F)n3)cn2)cc1 [compound 310]
- Test B disease control rating ([1]; test suspension 250 ppm): 0* %
- Test C disease control rating ([2]; test suspension 50 ppm): 0%
- Test A disease control rating ([3]; test suspension 50 ppm): 0%

SMILES: CCOC(=O)c1cnn(C(C)c2ccc(-c3noc(C(F)(F)F)n3)cc2)c1 (stereo not drawn) [Compound 2, ethyl 1-[1-[4-[5-(trifluoromethyl)-1,2,4-oxadiazol-3-yl]phenyl]ethyl]-1H-pyrazole-4-carboxylate]
- pest or weed control at 100 µg/mL [1, 4]: 98%
- pest or weed control at 10 µg/mL [2, 5]: 99%
- pest or weed control at 10 µg/mL [3, 6]: 100%

SMILES: O=C(NCC(F)(F)F)c1csc(COc2ccc(-c3noc(C(F)(F)F)n3)cc2)n1 [compound 470]
- Test B disease control rating [1, 9]: 0* %
- Test C disease control rating [2, 10]: 94%
- Test A disease control rating [3, 10]: 100%

SMILES: Fc1cccc2nn(Cc3ccc(-c4noc(C(F)(F)F)n4)cc3)cc12 [compound 130]
- Test B disease control rating ([1]; test suspension 260 ppm): 89%
- Test C disease control rating ([2]; test suspension 260 ppm): 100%
- Test A disease control rating ([3]; test suspension 260 ppm): 100%

SMILES: O=C(CCl)COC(=O)c1cnn(Cc2ccc(-c3noc(C(F)(F)F)n3)cc2)c1 [compound 495]
- Test B disease control rating [1, 9]: 43* %
- Test C disease control rating [2, 10]: 0%
- Test A disease control rating [3, 10]: 100%

SMILES: FC(F)(F)c1ccn(Cc2ccc(-c3noc(C(F)(F)F)n3)cc2)n1 [compound 153]
- Test B disease control rating ([1]; test suspension 250 ppm): 0%
- Test C disease control rating ([2]; test suspension 250 ppm): 89%
- Test A disease control rating ([3]; test suspension 250 ppm): 100%

SMILES: N#CCNC(=O)c1csc(Cc2ccc(-c3noc(C(F)(F)F)n3)cc2)c1 [compound 288]
- Test B disease control rating ([1]; test suspension 250 ppm): 91* %
- Test C disease control rating ([2]; test suspension 10 ppm): 100%
- Test A disease control rating [3, 8]: 100%

SMILES: COC(=O)c1nn(Cc2ccc(-c3noc(C(F)(F)F)n3)cc2)c2ccccc12 [compound 134]
- Test B disease control rating ([1]; test suspension 255 ppm): 0%
- Test C disease control rating ([2]; test suspension 255 ppm): 80%
- Test A disease control rating ([3]; test suspension 255 ppm): 100%

SMILES: CC(C)(C#N)NC(=O)c1coc(Cc2ccc(-c3noc(C(F)(F)F)n3)cc2)n1 [compound 230]
- Test B disease control rating ([1]; test suspension 250 ppm): 99* %
- Test C disease control rating ([2]; test suspension 10 ppm): 99%
- Test A disease control rating [3, 8]: 100%

SMILES: FC(F)(F)c1nc(-c2ccc(Cn3nc4ccccc4n3)cc2)no1 [compound 93]
- Test B disease control rating ([1]; test suspension 250 ppm): 39%
- Test C disease control rating ([2]; test suspension 250 ppm): 99%
- Test A disease control rating ([3]; test suspension 250 ppm): 100%

SMILES: FC(F)(F)c1nc(-c2ccc(Cn3ccc(-c4ccc(Cl)cc4)n3)cc2)no1 [compound 122]
- Test B disease control rating ([1]; test suspension 250 ppm): 0%
- Test C disease control rating ([2]; test suspension 250 ppm): 68%
- Test A disease control rating ([3]; test suspension 250 ppm): 100%

SMILES: CCOC(=O)c1cnn(Cn2cc(-c3noc(C(F)(F)F)n3)cn2)c1 [compound 305]
- Test B disease control rating ([1]; test suspension 250 ppm): 0* %
- Test C disease control rating ([2]; test suspension 50 ppm): 0%
- Test A disease control rating ([3]; test suspension 50 ppm): 44%

SMILES: N#CCNC(=O)c1coc(Cc2ccc(-c3noc(C(F)(F)F)n3)cc2)c1 [compound 294]
- Test B disease control rating ([1]; test suspension 250 ppm): 50* %
- Test C disease control rating ([2]; test suspension 10 ppm): 79%
- Test A disease control rating [3, 8]: 100%

SMILES: COC(=O)c1csc(Cc2ccc(-c3noc(C(F)(F)F)n3)cc2)c1 [Compound 455]
- Test B disease control rating [1, 9]: 66* %
- Test C disease control rating [2, 10]: 0%
- Test A disease control rating [3, 10]: 100%
